Measurements: BindingDB's records for doi:10.1016/j.ejmech.2020.113033 (Leiden University, 2021)

assay: Displacement of [3H]dofetilide from human ERG stably expressed in HEK293 cell membranes assessed as unlabelled dofetilide IC50 at 0.5 uM measured after 60 mins by microbeta liquid scintillation counting method (Rvb = 9.1 to 11.7 nM)

IC50	SMILES
18 nM	O=C(COc1ccc(C(=O)c2cc(Cl)ccc2Br)cc1)Nc1ccnc(C(=O)NCC2CC2)c1

assay: Displacement of [3H]dofetilide from human ERG stably expressed in HEK293 cell membranes assessed as unlabelled dofetilide IC50 at 3 uM measured after 60 mins by microbeta liquid scintillation counting method (Rvb = 9.1 to 11.7 nM)

IC50	SMILES
35 nM	O=C(COc1ccc(C(=O)c2cc(Cl)ccc2Br)cc1)Nc1cccnc1
60 nM	Cc1cc(NC(=O)COc2ccc(C(=O)c3cc(Cl)ccc3Br)cc2)ccn1
13 nM	N#Cc1cccc(NC(=O)COc2ccc(C(=O)c3cc(Cl)ccc3Br)cc2)c1F
11 nM	O=C(COc1ccc(C(=O)c2cc(Cl)ccc2Br)cc1)Nc1cccc(C(=O)NC2CC2)c1
18 nM	O=C(COc1ccc(C(=O)c2cc(Cl)ccc2Br)cc1)Nc1ccc(Cl)c(C(=O)NCC2CC2)c1

assay: Displacement of [3H]dofetilide from human ERG stably expressed in HEK293 cell membranes assessed as unlabelled dofetilide IC50 at 1 uM measured after 60 mins by microbeta liquid scintillation counting method (Rvb = 9.1 to 11.7 nM)

IC50	SMILES
20 nM	O=C(COc1ccc(C(=O)c2cc(Cl)ccc2Br)cc1)Nc1cncc(C(=O)NCC2CC2)c1

assay: Displacement of [3H]dofetilide from human ERG stably expressed in HEK293 cell membranes assessed as unlabelled dofetilide IC50 at 10 uM measured after 60 mins by microbeta liquid scintillation counting method (Rvb = 9.1 to 11.7 nM)

SMILES	IC50
O=C(COc1ccc(C(=O)c2cc(Cl)ccc2Br)cc1)Nc1ccnc(F)c1	18 nM
N#Cc1cc(NC(=O)COc2ccc(C(=O)c3cc(Cl)ccc3Br)cc2)ccc1F	70 nM

Other lines, results leading:

IC50	SMILES
36 nM	O=C(COc1ccc(C(=O)c2ccccc2Br)cc1)Nc1cccnc1
22 nM	CNC(=O)c1cccc(NC(=O)COc2ccc(C(=O)c3cc(Cl)ccc3Br)cc2)c1
26 nM	O=C(COc1ccc(C(=O)c2cc(Cl)ccc2Br)cc1)Nc1cccc(C(=O)NCC2CC2)c1
